Measured values taken from PubChem BioAssay AID1033 (Sanford-Burnham Center for Chemical Genomics, 2008).
The source made the active and inactive calls. The rule behind the calls is not given here.

Molecular target: Chaperone protein DnaK (Escherichia coli (strain K12)) (UniProt P0A6Y8)
Assay: E. coli DnaK SBD ligand binding – biophysical, NMR, chaperone (AID 1033)
Settings: Purified DnaK SBD

Chaperone protein DnaK (Escherichia coli (strain K12)), sequence (P0A6Y8 whole entry, looked up): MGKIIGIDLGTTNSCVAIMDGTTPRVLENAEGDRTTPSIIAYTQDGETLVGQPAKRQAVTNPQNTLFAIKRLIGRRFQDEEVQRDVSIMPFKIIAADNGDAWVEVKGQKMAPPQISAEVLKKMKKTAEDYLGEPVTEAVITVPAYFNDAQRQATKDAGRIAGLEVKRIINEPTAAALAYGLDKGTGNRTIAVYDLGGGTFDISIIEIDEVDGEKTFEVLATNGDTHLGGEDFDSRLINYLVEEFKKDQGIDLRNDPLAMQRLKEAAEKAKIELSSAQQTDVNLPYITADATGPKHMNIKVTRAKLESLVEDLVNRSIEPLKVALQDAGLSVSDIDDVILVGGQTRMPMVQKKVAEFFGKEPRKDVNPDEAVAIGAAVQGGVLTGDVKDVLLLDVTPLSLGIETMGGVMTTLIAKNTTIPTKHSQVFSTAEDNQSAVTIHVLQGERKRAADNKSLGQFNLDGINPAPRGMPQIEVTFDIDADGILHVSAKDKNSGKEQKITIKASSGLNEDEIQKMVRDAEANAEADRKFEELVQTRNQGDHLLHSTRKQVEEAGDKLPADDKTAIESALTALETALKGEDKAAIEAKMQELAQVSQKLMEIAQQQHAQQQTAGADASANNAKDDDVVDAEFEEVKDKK

## COc1cc(O)c(C)c(O)c1
  Kd: > 4 mM (inactive)

## O=C(OCc1c(Cl)cccc1Cl)c1cnccn1
  Kd: > 4 mM (inactive)

## CC1(C)CC2C1CCC1(C)OC1CCC2(C)O (stereo not drawn)
  Kd: > 4 mM (inactive)

## Cc1nnc(NCCCO)[nH]c1=O
  Kd: > 4 mM (inactive)

## NC(=O)c1ccc(NC(=O)c2cccnc2)cc1
  Kd: > 4 mM (inactive)

## Cc1[nH]c2ccccc2c1C=Nn1cncn1
  Kd: > 4 mM (inactive)

## O=C1CS/C(=N/S(=O)(=O)c2ccccc2)N1
  Kd: > 4 mM (inactive)

## CCCCCCCCCCCC1=C(O)C(=O)C=C(O)C1=O
  Kd: > 4 mM (inactive)

## C[C@H]1OC(O[C@H]2[C@@H](O)CC(O[C@H]3[C@@H](O)C[C@H](O[C@H]4CC[C@]5(C)C6CC[C@]7(C)[C@@H](C8=CC(=O)OC8)[C@@H](O)C[C@]7(O)[C@@H]6CC[C@@H]5C4)O[C@@H]3C)O[C@@H]2C)C[C@H](O)C1O (stereo partly drawn)
  Kd: > 4 mM (inactive)

## Cc1nc(-c2cccc(N)c2)cs1
  Kd: > 4 mM (inactive)

## O=C1CCNc2cc3ccccc3cc21
  Kd: > 4 mM (inactive)

## CCS(=O)(=O)N1CCN(c2ccccc2F)CC1
  Kd: > 4 mM (inactive)

## O=C1CC(=O)N(Cc2ccco2)C(=S)N1
  Kd: > 4 mM (inactive)

## O=C(CC1CCCCC1)N1CCN(c2ccccn2)CC1
  Kd: > 4 mM (inactive)

## O=C(Oc1ccc2c(c1)CCC2)N1CCOCC1
  Kd: > 4 mM (inactive)

## OCCN1CCN(C(=S)c2ccc(Cl)cc2)CC1
  Kd: > 4 mM (inactive)

## C/C(=C\CO)CC[C@H](C)CCC[C@H](C)CCCC(C)C
  Kd: > 4 mM (inactive)

## CC12CCC3C(CC3(C)C)C(C)(CCC1=O)O2 (stereo not drawn)
  Kd: > 4 mM (inactive)

## c1csc(-c2nn[nH]n2)c1
  Kd: > 4 mM (inactive)

## Nc1ccc(O)cn1
  Kd: > 4 mM (inactive)

## O=C(O)Cn1nc(-c2ccccc2)c2ccccc2c1=O
  Kd: > 4 mM (inactive)

## Nc1cc(C(=O)O)ccc1N1CCCCCC1
  Kd: > 4 mM (inactive)

## Cn1c(NCc2ccccc2O)nc2ccccc21
  Kd: > 4 mM (inactive)

## Oc1ccc(-n2cncn2)cc1
  Kd: > 4 mM (inactive)

## CCn1cnc2sc(C(=O)O)c(C)c2c1=O
  Kd: > 4 mM (inactive)

## Nc1nncn1C(=O)c1ccccc1Cl
  Kd: > 4 mM (inactive)

## COc1ccc2c(c1)OC/C(=C/c1ccc(O)c(O)c1)C2=O
  Kd: > 4 mM (inactive)

## NC(C(=O)O)C(O)c1ccccc1 (stereo not drawn)
  Kd: > 4 mM (inactive)

## OC(c1ccccc1)c1ccccn1 (stereo not drawn)
  Kd: > 4 mM (inactive)

## Cc1nc(-c2cnccn2)sc1C(=O)O
  Kd: > 4 mM (inactive)

## O=C(Nc1c[nH]c(=O)[nH]c1=O)c1ccccc1F
  Kd: > 4 mM (inactive)

## O=C(Cc1cccs1)Nc1ccon1
  Kd: > 4 mM (inactive)

## CC(=O)c1c(C)nc(C)nc1NC(=O)C(C)C
  Kd: > 4 mM (inactive)

## Cn1c(O)c(C=NCC2CCNCC2)c(=O)n(C)c1=O
  Kd: > 4 mM (inactive)

## NC(=O)C1CCN(c2nccc(C(F)(F)F)n2)CC1
  Kd: > 4 mM (inactive)

## CCC1(CC)C(=O)NC(=O)N=C1N
  Kd: > 4 mM (inactive)

## COc1ccc(-c2cc(=O)c3c(OC(C)=O)cc(OC(C)=O)cc3o2)cc1
  Kd: > 4 mM (inactive)

## CC(=O)NC(=S)Nc1nc2ccccc2n1C(C)=O
  Kd: > 4 mM (inactive)

## CC(C)NC(=O)c1cc(=O)n(C)c(=O)n1C
  Kd: > 4 mM (inactive)

## COc1ccc(-c2nc(N)n(C(C)=O)n2)cc1
  Kd: > 4 mM (inactive)

## CC(=O)Nc1cc(C(F)(F)F)ccc1N1CCOCC1
  Kd: > 4 mM (inactive)

## O=C(O)CN1CCNCC1
  Kd: > 4 mM (inactive)

## CC(C)=CCCC1(C)C=Cc2c(O)c3c(c(CC=C(C)C)c2O1)OC12C(=CC4CC1C(C)(C)OC2(C/C=C(/C)C(=O)O)C4=O)C3=O (stereo not drawn)
  Kd: > 4 mM (inactive)

## CCOC(=O)C1C(C=C(C)C)C1(C)C (stereo not drawn)
  Kd: > 4 mM (inactive)

## CC1(C)C2CC[C@]3(C)C(C(=O)C=C4[C@H]5C[C@@](C)(C(=O)O)CC[C@]5(C)CC[C@]43C)[C@@]2(C)CC[C@@H]1O (stereo partly drawn)
  Kd: > 4 mM (inactive)

## Cc1nc2[nH]onc2c2nccc(=O)c12
  Kd: > 4 mM (inactive)

## CN(C)S(=O)(=O)c1ccc(N2CCOCC2)nc1
  Kd: > 4 mM (inactive)

## O=C(NCc1ccccc1Br)c1cccs1
  Kd: < 0.2 mM

## O=C(Nc1cccnc1)c1c(F)c(F)c(F)c(F)c1F
  Kd: > 4 mM (inactive)

## O=c1ccc(=O)n(CN2CCc3ccccc3C2)[nH]1
  Kd: > 4 mM (inactive)

## O=C(/C=C(\O)c1ccccc1)c1ccccc1O
  Kd: > 4 mM (inactive)

## CC1=C2C(O)C(=O)OC3CC4C(C)(C)C(=O)C=C[C@]4(C)C(CC1)[C@]23C (stereo partly drawn)
  Kd: > 4 mM (inactive)

## c1ccc(CCc2nc(-c3cccnc3)no2)cc1
  Kd: > 4 mM (inactive)

## CC(=O)NC(=S)Nc1ccccc1C
  Kd: > 4 mM (inactive)

## Nc1ccc(N2CCOCC2)c(Cl)c1
  Kd: > 4 mM (inactive)

## COc1ccc(-c2noc(-c3ccco3)n2)cc1OC
  Kd: > 4 mM (inactive)

## Cc1cc(=O)c2c(O)cc(O)c(C)c2o1
  Kd: > 4 mM (inactive)

## O=C(Nn1cnnc1)c1ccccc1-c1ccccc1
  Kd: > 4 mM (inactive)
